In patent publication US11357786B2, “Synthetic disugar hydrocarbons as natural analogs to control microbial behaviors” (Syracuse University, priority 2014, dated 2022):

Experiments:
Type in all cases: cell-based, Pseudomonas aeruginosa
PAO1 biofilm = experiment: Crystal violet dye based biofilm inhibition assay, maltose derivatives (Example 1); conditions: for Inhibition of PAO1 biofilm: 110 μM, 24 h, CV assay; for Anti-biofilm activity (inhibition): concentration not given
Method: A crystal violet (CV) assay was used to measure the amount of PAO1 biofilm formed after 24 h of bacterial inoculation. The fluorescence of green fluorescent proteins (GFP) expressed by PAO1-GFP was measured to directly quantify bacterial adhesion on polystyrene black 96 well plates with and without maltose derivatives after 2 h of bacterial inoculation. To evaluate the potential of maltose derivatives as both anti-biofilm and anti-adhesion agents, they were compared to a brominated furanone (BF8) known to inhibit biofilm formation, and two generic surfactants, sodium dodecyl sulfate (SDS) and tetra (ethylene glycol) monododecyl ether (C12EG4OH). […] P. aeruginosa strain PAO1-EGFP that constitutively producing green fluorescent protein was allowed to form biofilm on sterile steel coupons.
Inhibitory effect of all the maltose hydrocarbons on P. aeruginosa biofilm formation was determined by crystal violet dye based biofilm inhibition assays. Overnight culture of wild type P. aeruginosa (PAO1) was sub cultured to an OD600 of 0.01 into the 95:5 M9+:Lb medium. 200 μL of the sub culture was aliquoted into the wells of 96 well polystyrene microtiter plate when it reached the OD600 of 0.1. Predetermined concentrations of the test compounds were then added to the respective wells containing sub culture. Sample plates were wrapped in GLAD Press n′ Seal® followed by incubation under stationary conditions for 24 h at 37° C. After incubation the media was discarded and the plates were washed with water and dried for 1 h at 37° C. The sample plates were stained with 200 μL of 0.1% aqueous solution of crystal violet (CV) and followed by incubation at ambient temperature for 20 min. The CV stain was then discarded and the plates were washed with water. The remaining biofilm adhered stain was re-solubilized with 200 μL of 30% acetic acid. After the stain was dissolved (15 minutes), 100 μL of the solubilized CV was transferred from each well into the corresponding wells of a new polystyrene microtiter dish. Biofilm inhibition was quantified by measuring the OD600 of each well in which a negative control lane wherein no biofilm was formed served as a background and was subtracted out. The percent inhibition was calculated by the comparison of the OD600 for biofilm grown in the absence of compound (control) versus biofilm grown in the presence of compound under identical conditions.
(§1) Predetermined amounts maltose derivatives stock solution was added to the 200 μL bacterial culture in 96 well plate so that the final concentration of the agent reaches the desired values of 1, 5, 10, 20, 40, 85, 113, 140 μM. Biofilm inhibition and dispersion assay was carried as described previously.

24 h old PAO1 biofilm = experiment: Crystal violet biofilm dispersion assay, maltose derivatives (Example 1); conditions: concentration not given
Method: Chemical dispersion of already formed biofilm is often more relevant to medical application, and more challenging than biofilm inhibition assays, for which the agents are introduced at the onset of an experiment. We screened the ability of maltose derivatives at 110 μM to disperse 24 h old biofilm.
PAO1 was allowed to grow for 24 h at 37° C. After 24 h, bacterial culture was pipetted out and replaced with 200 μL of 110 μM maltose hydrocarbons and sterile water (control). After 1 h treatment with maltose hydrocarbons, biofilm was fixed and quantified using crystal violet dye as described above. The amount of dispersed biofilm was determined via comparison of the amount of biofilm at 24 h in the presence of maltose hydrocarbons versus the amount of biofilm in the “no compound” positive control at 24 h (wells with water treatment).
as §1

[1] = system: las quorum sensing system; experiment: las quorum sensing gene reporter assay (plasI-LVAgfp); conditions: natural autoinducers present
Source text: (§2) The ability of the maltoside derivatives to antagonize the two quorum sensing circuits las and/or rhl of P. aeruginosa was investigated by using two reporter strains (PAO1/plasI-LVAgfp, PAO1/prhlI-LVAgfp). These reporter strains produce natural AHL signals, and binding of such signal molecules to the Lux-type receptor proteins ([…]) activates the expression of green fluorescent protein (GFP) encoded by the plasmid.
(§3) One of the recent approach for a nonmicrobicidal control of biofilm aims to develop agents that disrupt bacterial cell-to-cell communication by acting as mimics to the natural molecules (autoinducer) that bind […], which are encoded by las and rhl gene. The binding of these mimics with lasR and rhlR proteins either activates or represses the expression of lasI or rhlI.^6 In gene reporter assay, the expression of lasI and rhlI proteins is quantified by measuring expression of green fluorescent protein (GFP) fused to lasI and rhlI genes.^5 Two reporter strains of Pseudomonas aeruginosa (PAO1/plasI_LVAgfp and PAO1/prhlI_LVAgfp) express green fluorescence protein on activation of las or rhl quorum sensing system. The activation or repression of las or rhl quorum sensing system in PA was tested by various DSHs.
(§4) Strains PAO1/plasI-LVAgfp and PAO1/prhlI-LVAgfp were grown overnight in LB-media that was supplemented with 300 μg/mL carbenicillin and after 16 hours, the bacteria were sub cultured in LB media (supplemented with 300 μg/mL carbenicillin) to OD600 as 0.01. The OD600 was allowed to reach 0.1 and then 200 μL of culture was aliquoted into the wells of 96-well microtiter plate. DSHs were then added to assigned wells at two different concentrations (85 μM and 160 μM). No agent was added to the well for positive control. The plates then incubated at 37° C. for 24 h in a rotary shaking incubator (250 rpm). The culture from each well was then transferred to corresponding wells of a black walled flat-bottom, 96-well plate (μClear, Greiner-One 655096). The fluorescence and OD absorbance in each well was measured by Synergy 2 multi-mode microplate reader with aGen5 data analysis software. […] Fluorescence was measured at an excitation wavelength of 500 nm and an emission wavelength of 540 nm.
(§5) For an antagonist assay, overnight culture of P. aeruginosa PAO1/plasI-LVAgfp (las system) or PAO1/prhlI-LVAgfp (rhl system) in LB broth (supplemented with 300 μg/mL carbenicillin) was grown from a single colony on a LB agar plate supplemented with 300 μg/mL carbenicillin. […] The fluorescence and OD absorbance in each well was measured by Synergy 2 multi-mode microplate reader with Gen5 data analysis software. […] Fluorescence was measured at an excitation wavelength of 500 nm and an emission wavelength of 540 nm. […]

[2] = system: rhl quorum sensing system; experiment: rhl quorum sensing gene reporter assay (prhlI-LVAgfp); conditions: natural autoinducers present
Source text: as §2, §3, §4, §5

| SMILES | Inhibition of PAO1 biofilm (PAO1 biofilm) | Anti-biofilm activity (inhibition) (PAO1 biofilm) | Anti-biofilm activity (dispersion) (24 h old PAO1 biofilm) | Change of GFP fluorescence, las reporter strain PAO1/plasI-LVAgfp (antagonist assay) [1] | Change of GFP fluorescence, las reporter strain PAO1/plasI-LVAgfp (antagonist assay) ([1]; listed as 13: SFαC) | Change of GFP fluorescence, rhl reporter strain PAO1/prhlI-LVAgfp (antagonist assay) [2] | Change of GFP fluorescence, rhl reporter strain PAO1/prhlI-LVAgfp (antagonist assay) ([2]; listed as 13: SFαC) | Change of GFP fluorescence, las reporter strain PAO1/plasI-LVAgfp (antagonist assay) ([1]; listed as 12: SFβC) | Change of GFP fluorescence, rhl reporter strain PAO1/prhlI-LVAgfp (antagonist assay) ([2]; listed as 12: SFβC) |
| --- | --- | --- | --- | --- | --- | --- | --- | --- | --- |
| CCCCCCCCCCCCOS(=O)(=O)[O-].[Na+] [SDS, sodium dodecyl sulfate, reference compound] | did not show any noticeable biofilm inhibition | did not show any anti-biofilm activities | did not show any anti-biofilm activities |  |  |  |  |  |  |
| CC(C)CCCC(C)CCCC(C)CCO[C@H]1O[C@H](CO)[C@@H](O[C@@H]2O[C@H](CO)[C@@H](O)[C@H](O)[C@H]2O)[C@H](O)[C@H]1O (stereo partly drawn) [SFαC (13), saturated farnesyl-α-cellobioside] |  |  |  | neither SFβC (12) nor SFαC (13) caused a significant change in the fluorescence | no significant change in the fluorescence | neither SFβC (12) nor SFαC (13) caused a significant change in the fluorescence | no significant change in the fluorescence |  |  |
| CCCCCCCCCCCCOCCOCCOCCOCCO [C12EG4OH, tetra (ethylene glycol) monododecyl ether, reference compound] | did not show any noticeable biofilm inhibition | did not show any anti-biofilm activities | did not show any anti-biofilm activities |  |  |  |  |  |  |
| CC(C)CCCC(C)CCCC(C)CCO[C@@H]1O[C@H](CO)[C@@H](O[C@@H]2O[C@H](CO)[C@@H](O)[C@H](O)[C@H]2O)[C@H](O)[C@H]1O (stereo partly drawn) [SFβC (12), saturated famesyl-β-cellobioside] |  |  |  | neither SFβC (12) nor SFαC (13) caused a significant change in the fluorescence |  | neither SFβC (12) nor SFαC (13) caused a significant change in the fluorescence |  | no significant change in the fluorescence | no significant change in the fluorescence |
